Measured values: the supplement of paper PMC10307832

What was measured:
Assay in all cases: relative viability (nuclei count vs DMSO), 5 days (fraction); higher = more cells survive
A549 = tested on: A549
Summary of the method: (§1)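 Relative viability is defined as nuclei in treated wells over nuclei in vehicle wells. Duplicate plates were run and medians reported. Lung cancer cell lines in 1536-well plates were dosed by pin tool one day after seeding, with one drug or with a fixed anchor-drug dose plus five library-drug doses (not always all listed) in √10 steps, and nuclei were counted after 5 days.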

HCC-366 = tested on: HCC-366
Summary of the method: as §1

HCC-44 = tested on: HCC-44
Summary of the method: as §1

LOU-NH91 = tested on: LOU-NH91
Summary of the method: as §1

NCI-H1437 = tested on: NCI-H1437
Summary of the method: as §1

NCI-H1648 = tested on: NCI-H1648
Summary of the method: as §1

NCI-H2085 = tested on: NCI-H2085
Summary of the method: as §1

NCI-H3122 = tested on: NCI-H3122
Summary of the method: as §1

IA-LM = tested on: IA-LM
Summary of the method: as §1

O=c1cc(-c2cccc3c2Sc2ccccc2S3)oc(N2CCOCC2)c1 + Nc1ncn([C@H]2C[C@H](O)[C@@H](CO)O2)c(=O)n1 [Decitabine] (partner 2 µM)
relative viability (A549; first compound 0.08 µM): 0.259 | relative viability (A549; first compound 0.253 µM): 0.325 | relative viability (A549; first compound 0.8 µM): 0.263 | relative viability (A549; first compound 2.53 µM): 0.106 | relative viability (A549; first compound 8 µM): 0.334 | relative viability (HCC-366; first compound 0.08 µM): 0.324 | relative viability (HCC-366; first compound 0.253 µM): 0.486 | relative viability (HCC-366; first compound 0.8 µM): 0.363 | relative viability (HCC-366; first compound 2.53 µM): 0.273 | relative viability (HCC-366; first compound 8 µM): 0.33 | relative viability (HCC-44; first compound 0.08 µM): 0.93 | relative viability (HCC-44; first compound 0.253 µM): 1.02 | relative viability (HCC-44; first compound 0.8 µM): 0.968 | relative viability (HCC-44; first compound 2.53 µM): 0.88 | relative viability (HCC-44; first compound 8 µM): 0.965 | relative viability (LOU-NH91; first compound 0.08 µM): 0.777 | relative viability (LOU-NH91; first compound 0.253 µM): 0.894 | relative viability (LOU-NH91; first compound 0.8 µM): 0.784 | relative viability (LOU-NH91; first compound 2.53 µM): 0.777 | relative viability (LOU-NH91; first compound 8 µM): 0.844 | relative viability (NCI-H1437; first compound 0.08 µM): 0.573 | relative viability (NCI-H1437; first compound 0.253 µM): 0.708 | relative viability (NCI-H1437; first compound 0.8 µM): 0.628 | relative viability (NCI-H1437; first compound 2.53 µM): 0.524 | relative viability (NCI-H1437; first compound 8 µM): 0.578 | relative viability (NCI-H1648; first compound 0.253 µM): 0.501 | relative viability (NCI-H1648; first compound 0.8 µM): 0.553 | relative viability (NCI-H1648; first compound 8 µM): 0.54 | relative viability (NCI-H2085; first compound 0.08 µM): 0.532 | relative viability (NCI-H2085; first compound 0.253 µM): 0.578 | relative viability (NCI-H2085; first compound 0.8 µM): 0.52 | relative viability (NCI-H2085; first compound 2.53 µM): 0.519 | relative viability (NCI-H2085; first compound 8 µM): 0.537 | relative viability (NCI-H3122; first compound 0.08 µM): 0.36 | relative viability (NCI-H3122; first compound 0.253 µM): 0.551 | relative viability (NCI-H3122; first compound 0.8 µM): 0.45 | relative viability (NCI-H3122; first compound 2.53 µM): 0.38 | relative viability (NCI-H3122; first compound 8 µM): 0.534

O=c1cc(N2CCOCC2)oc2c(-c3cccc4c3sc3ccccc34)cccc12 + O=C(CCCCCCC(=O)Nc1ccccc1)NO [Vorinostat] (partner 1 µM)
relative viability (HCC-366; first compound 0.01 µM): 0.386 | relative viability (HCC-366; first compound 0.03162 µM): 0.362 | relative viability (HCC-366; first compound 0.1 µM): 0.339 | relative viability (HCC-366; first compound 0.3162 µM): 0.395 | relative viability (HCC-366; first compound 1 µM): 0.371 | relative viability (HCC-44; first compound 0.01 µM): 1.05 | relative viability (HCC-44; first compound 0.03162 µM): 1.05 | relative viability (HCC-44; first compound 0.1 µM): 1.06 | relative viability (HCC-44; first compound 0.3162 µM): 1.03 | relative viability (HCC-44; first compound 1 µM): 1.07 | relative viability (IA-LM; first compound 0.01 µM): 0.965 | relative viability (IA-LM; first compound 0.03162 µM): 0.986 | relative viability (IA-LM; first compound 0.1 µM): 0.907 | relative viability (IA-LM; first compound 0.3162 µM): 0.901 | relative viability (IA-LM; first compound 1 µM): 0.909 | relative viability (LOU-NH91; first compound 0.01 µM): 0.623 | relative viability (LOU-NH91; first compound 0.03162 µM): 0.881 | relative viability (LOU-NH91; first compound 0.1 µM): 0.894 | relative viability (LOU-NH91; first compound 0.3162 µM): 1.04 | relative viability (LOU-NH91; first compound 1 µM): 0.904 | relative viability (NCI-H1437; first compound 0.01 µM): 0.822 | relative viability (NCI-H1437; first compound 0.03162 µM): 0.874 | relative viability (NCI-H1437; first compound 0.1 µM): 0.866 | relative viability (NCI-H1437; first compound 0.3162 µM): 0.784 | relative viability (NCI-H1437; first compound 1 µM): 0.806 | relative viability (NCI-H1648; first compound 0.03162 µM): 0.577 | relative viability (NCI-H1648; first compound 0.1 µM): 0.438 | relative viability (NCI-H1648; first compound 0.3162 µM): 0.419 | relative viability (NCI-H1648; first compound 1 µM): 0.689 | relative viability (NCI-H2085; first compound 0.01 µM): 0.779 | relative viability (NCI-H2085; first compound 0.03162 µM): 0.783 | relative viability (NCI-H2085; first compound 0.1 µM): 0.755 | relative viability (NCI-H2085; first compound 0.3162 µM): 0.788 | relative viability (NCI-H2085; first compound 1 µM): 0.753 | relative viability (NCI-H3122; first compound 0.01 µM): 0.933 | relative viability (NCI-H3122; first compound 0.03162 µM): 1.02 | relative viability (NCI-H3122; first compound 0.1 µM): 1.04 | relative viability (NCI-H3122; first compound 0.3162 µM): 0.895 | relative viability (NCI-H3122; first compound 1 µM): 1.02

CCN(CC)CCCCNc1ncc2cc(-c3cc(OC)cc(OC)c3)c(NC(=O)NC(C)(C)C)nc2n1 + O=C(CCCCCCC(=O)Nc1ccccc1)NO [Vorinostat] (partner 1 µM)
relative viability (HCC-366; first compound 0.01 µM): 0.414 | relative viability (HCC-366; first compound 0.03162 µM): 0.369 | relative viability (HCC-366; first compound 0.1 µM): 0.423 | relative viability (HCC-366; first compound 0.3162 µM): 0.383 | relative viability (HCC-366; first compound 1 µM): 0.288 | relative viability (HCC-44; first compound 0.01 µM): 1.11 | relative viability (HCC-44; first compound 0.03162 µM): 1.08 | relative viability (HCC-44; first compound 0.1 µM): 1.16 | relative viability (HCC-44; first compound 0.3162 µM): 1.08 | relative viability (HCC-44; first compound 1 µM): 1.15 | relative viability (IA-LM; first compound 0.01 µM): 0.963 | relative viability (IA-LM; first compound 0.03162 µM): 0.836 | relative viability (IA-LM; first compound 0.1 µM): 0.852 | relative viability (IA-LM; first compound 0.3162 µM): 1.26 | relative viability (IA-LM; first compound 1 µM): 0.979 | relative viability (LOU-NH91; first compound 0.01 µM): 0.868 | relative viability (LOU-NH91; first compound 0.03162 µM): 0.99 | relative viability (LOU-NH91; first compound 0.1 µM): 1.04 | relative viability (LOU-NH91; first compound 0.3162 µM): 1.08 | relative viability (LOU-NH91; first compound 1 µM): 0.901 | relative viability (NCI-H1437; first compound 0.01 µM): 0.88 | relative viability (NCI-H1437; first compound 0.03162 µM): 0.821 | relative viability (NCI-H1437; first compound 0.1 µM): 0.827 | relative viability (NCI-H1437; first compound 0.3162 µM): 0.948 | relative viability (NCI-H1437; first compound 1 µM): 0.82 | relative viability (NCI-H1648; first compound 0.01 µM): 0.48 | relative viability (NCI-H1648; first compound 0.03162 µM): 0.352 | relative viability (NCI-H1648; first compound 0.1 µM): 0.666 | relative viability (NCI-H1648; first compound 0.3162 µM): 0.602 | relative viability (NCI-H1648; first compound 1 µM): 0.327 | relative viability (NCI-H2085; first compound 0.01 µM): 0.782 | relative viability (NCI-H2085; first compound 0.03162 µM): 0.8 | relative viability (NCI-H2085; first compound 0.1 µM): 0.935 | relative viability (NCI-H2085; first compound 0.3162 µM): 0.858 | relative viability (NCI-H2085; first compound 1 µM): 0.793 | relative viability (NCI-H3122; first compound 0.01 µM): 0.983 | relative viability (NCI-H3122; first compound 0.03162 µM): 1.06 | relative viability (NCI-H3122; first compound 0.1 µM): 1.09 | relative viability (NCI-H3122; first compound 0.3162 µM): 0.996 | relative viability (NCI-H3122; first compound 1 µM): 1.14
